The text below walks through data of patent US5709816A, “Singlet oxygen quenchers and external compositions containing the same” (Kao Corporation, priority 1899, dated 1998).

Assay [1] deals with skin of hairless mice. Nature of the assay: Analysis of wrinkles in hairless mice (image analysis of skin replicas). The settings on record: 5 wt. % in ethanol, 80 μl; UV-B sixteen weeks; shadow area of skin replicas, 30°; control (ethanol) 6.46 ± 0.68. In kind it is in vivo, hairless mouse (HR/ICR). As for the experimental part: (§1) To each hairless mouse (HR/ICR, 6 weeks old when the test started), a test substance (5 wt. %, in ethanol) was applied. (80 μl). Approximately 10 minutes later, UV-B was irradiated thereto using 6 bulbs of health lamps (SL20-SLE, Toshiba) so that the dose per irradiation was not greater than 1 MED. Irradiation was repeated five times per week over sixteen weeks. While the irradiation energy was measured using a UV-radiometer (UVR-305/S65D, Tokyo Optical K.K.) so that the dose per irradiation was not greater than 1 MED, energy was irradiated at an intensity of 0.28 mW/cm^2, with the total dose. 100 mJ/cm^2. As a control, a case where only ethanol was applied was similarly tested in a manner performed on the test substances.
In order to analyze the wrinkles formed in the above step (1) in detail, replicas of different skin areas (3 replicas per mouse) each having a round shape with a diameter of 1 cm were obtained using a hydrophilic exaflex, hydrophilic vinyl silicone imaging agent. Each replica was placed horizontally and lightened from an angle of 30°. The area of shadows formed by wrinkles was analyzed as the area ratio using an image analyzing apparatus.

The test system of assay [2] is skin of hairless mice. Nature of the assay: Inhibition of wrinkle formation in hairless mice (visual wrinkle index). In kind it is in vivo, hairless mouse (HR/ICR). Particulars: 5 wt. % in ethanol, 80 μl; UV-B five times per week, sixteen weeks; scale 1 (no wrinkles) to 4; control (ethanol) 3.78 ± 0.08. As for the experimental part:
(1) Inhibition of wrinkle formation in hairless mice.
as §1
After completion of the testing, the level of wrinkle formation was visually determined using the following standards (wrinkle indices).
1: No wrinkles are formed
2: Small amounts of wrinkles are formed
3: Moderate amounts of wrinkles are formed
4: Considerable amounts of wrinkles are formed

Take `CCCCN(Cc1ccco1)Cc1ccco1` [Compound (22), N,N-bisfurfurylbutylamine]: in the assay with skin of hairless mice [1], the “Area ratio of image analysis” value came out at 3.37 ± 0.30%. In addition, the Wrinkle index in the assay on skin of hairless mice [2] stood at 2.34 ± 0.16.
Consider `CCCCC(CC)CN(Cc1ccco1)Cc1ccco1` (stereo not shown) [Compound (23), N,N-bisfurfuryl-2-ethylhexylamine], for which the “Area ratio of image analysis” value in the assay with skin of hairless mice [1] was determined as 3.23 ± 0.18%. The Wrinkle index in the assay with skin of hairless mice [2] is reported as 2.17 ± 0.05.
As to `CCOC(=O)CN(Cc1ccco1)Cc1ccco1` [Compound (24), ethyl N,N-bisfurfurylglycine], the “Area ratio of image analysis” value with skin of hairless mice [1] was determined as 3.27 ± 0.29%. In the assay on skin of hairless mice [2], this compound displayed a Wrinkle index of 2.56 ± 0.08.
The like results for `Cc1ccc(CN(Cc2ccc(C)o2)c2ccccc2)o1` [Compound (25), N,N-bis(5-methylfurfuryl)phenylamine] were, in that order, 3.32 ± 0.21% and 2.35 ± 0.34.
For the compound `COc1ccc(N(Cc2ccc(C)o2)Cc2ccc(C)o2)cc1` [Compound (26), N,N-bis(5-methylfurfuryl)-p-methoxyphenylamine], in the assay with skin of hairless mice [1], the “Area ratio of image analysis” value is listed as 3.69 ± 0.59%. Also, the Wrinkle index in the assay on skin of hairless mice [2] amounted to 2.44 ± 0.33.
The like results for `COc1ccc(N(Cc2ccc(C)o2)Cc2ccc(C)o2)cc1OC` [Compound (27), N,N-bis(5-methylfurfuryl)-3,4-dimethoxyphenylamine] were, in that order, 3.73 ± 0.29% and 2.22 ± 0.17.
For `COc1cc(N(Cc2ccc(C)o2)Cc2ccc(C)o2)cc(OC)c1OC` [Compound (28), N,N-bis(5-methylfurfuryl)-3,4,5-trimethoxyphenylamine] the same measures were 3.24 ± 0.33% and 2.43 ± 0.06.
For `Cc1ccc(N(Cc2ccc(C)o2)Cc2ccc(C)o2)cc1` [Compound (29), N,N-bis(5-methylfurfuyl)-4-methylphenylamine] the same measures were 3.64 ± 0.12% and 2.28 ± 0.06.
`Cc1ccc(CN(Cc2ccc(C)o2)c2ccccc2C)o1` [Compound (30), N,N-bis(5-methylfurfuryl)-2-methylphenylamine]: the “Area ratio of image analysis” value in the assay on skin of hairless mice [1] stood at 3.39 ± 0.47%. The Wrinkle index in the assay on skin of hairless mice [2] is 2.51 ± 0.43.
For the compound `COc1ccc(N(Cc2ccco2)Cc2ccc(C)o2)cc1` [Compound (31), N-furfuryl-N-(S-methylfurfuryl)-4-methoxyphenylamine], the “Area ratio of image analysis” value with skin of hairless mice [1] worked out at 3.30 ± 0.17%. The Wrinkle index with skin of hairless mice [2] turned out to be 2.49 ± 0.20.
For `CC(=O)Oc1c(C)c(C)c2c(c1C)CCC(C)(CCCC(C)CCCC(C)CCCC(C)C)O2` (stereo not drawn) [α-Tocopheryl acetate, reference compound] the same measures were 4.67 ± 0.48% and 3.28 ± 0.23.
